What was measured:
[1] = molecular target: T1, MetbaB (Methanosarcina β-lactamase class B) (Methanosarcina barkeri, UniProt A0A0E3SJT9); assay: inhibition of nitrocefin hydrolysis, absorbance at […] nm; type: biochemical; settings: substrate nitrocefin; 1 µg/mL sulbactam; 30 min
T1 construct: gene MSBR3_0040

[2] = tested on: T2, archaeal class C-like β-lactamase; assay: nitrocefin hydrolysis, absorbance at […] nm, Michaelis-Menten fit; type: biochemical, Methanosarcina sp.; settings: room temperature; 4 µM enzyme; 0.05-1.5 mM nitrocefin
T2 construct: gene class C-like beta-lactamase

T1 sequence (A0A0E3SJT9 1-213 limits assumed): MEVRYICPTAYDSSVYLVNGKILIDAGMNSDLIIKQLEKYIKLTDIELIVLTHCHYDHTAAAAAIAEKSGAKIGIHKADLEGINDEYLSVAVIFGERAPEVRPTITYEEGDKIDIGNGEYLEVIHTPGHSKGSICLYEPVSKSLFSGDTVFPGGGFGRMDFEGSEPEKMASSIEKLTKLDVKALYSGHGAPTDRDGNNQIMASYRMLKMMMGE

Structure (SMILES)	inhibition at 1 μg/mL [1]	Km [2] [µM]
CC1(C)[C@H](C(=O)O)N2C(=O)C[C@H]2S1(=O)=O [sulbactam]	in the presence of sulbactam, no degradation of the nitrocefin β-lactam could be detected	
O=C(Cc1cccs1)N[C@@H]1C(=O)N2C(C(=O)O)=C(/C=C/c3ccc([N+](=O)[O-])cc3[N+](=O)[O-])CS[C@H]12 [nitrocefin]		584

— publication PMC7697635, “Dual RNase and β-lactamase Activity of a Single Enzyme Encoded in Archaea” (Life, 2020)
